In patent US20070219213A1, “Use of Adrenergic N-Phenylpiperazine Antagonists, Pahrmaceutical Compositions Containning Them, and Methods of Preparing Them” (priority 2004, published 2007):
“Also recorded” adds a separate entry of the source.

How the values were obtained:
[1] = biological target: T1, beta 2 adrenergic receptors (Cavia porcellus, UniProt Q8K4Z4); test: Salbutamol relaxation of cobaio trachea pre-contracted with carbacol; format: cell-based, guinea pig; details: salbutamol 10^−10-3.3×10^−5 M, strips pre-contracted with carbacol 10 microM, n=4
T1 construct: from tissue; host or cells: guinea pig trachea strips pre-contracted with carbachol
T1 sequence (Q8K4Z4 whole entry): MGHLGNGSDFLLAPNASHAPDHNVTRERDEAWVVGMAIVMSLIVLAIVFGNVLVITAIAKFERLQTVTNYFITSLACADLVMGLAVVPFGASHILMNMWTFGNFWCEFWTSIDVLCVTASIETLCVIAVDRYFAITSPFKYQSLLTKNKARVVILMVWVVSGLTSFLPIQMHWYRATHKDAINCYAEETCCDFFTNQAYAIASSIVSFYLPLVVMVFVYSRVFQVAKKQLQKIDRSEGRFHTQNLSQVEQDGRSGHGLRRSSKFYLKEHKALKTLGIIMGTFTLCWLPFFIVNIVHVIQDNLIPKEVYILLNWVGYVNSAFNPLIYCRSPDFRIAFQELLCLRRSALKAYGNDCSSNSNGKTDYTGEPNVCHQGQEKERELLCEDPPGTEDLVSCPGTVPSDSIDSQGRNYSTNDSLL
Excerpt: Selectivity Assay for Protein G-Coupled, Beta-Adrenergic, Muscarinic Cholinergic and Histaminergic Bioreceptors
Determination of the Inhibitory Potency (IC50) of LASSBio 772 on Vasoconstriction of the Cobaio (Guinea Pig) Trachea
Cobaios albinos from both sexes, weighing between 400 and 600 g were used in this experiment. The animals were sacrificed by cervical displacement and posterior bleed. Then, their tracheas were removed, kept in 5 microM indometacin added Krebs-Henseleit physiologic solution and oxygenated with carbogenic mixture (95% O2 and 5% CO2), proceeding the removal of the connective and adhered adipose tissue. From these tracheas were obtained segments with 4-6 rings, that are sectioned in the opposite side of the smooth musculature, originating strips used in the contractions assay (ARAKIDA et al., J. Pharmacol. Exper. Therap., 287: 633-639, 1998). […]
After the period, the organ is treated with agonists that will induce contractions. […] The tissue viability was evaluated by contraction induction with histamine 100 microM or carbacol 10 microM. […]
In another experiment the compound was evaluated for its capability to inhibit the relaxation produced by salbutamol (10^−10-3.3×10^−5 M), beta 2 adrenergic agonist, in strips of cobaio trachea pre-contracted with carbacol (10 microM).

α1A = biological target: T2, α1A (Oryctolagus cuniculus, UniProt O02824); test: Binding study in rabbit liver
T2 construct: from tissue
T2 sequence (O02824 1-466): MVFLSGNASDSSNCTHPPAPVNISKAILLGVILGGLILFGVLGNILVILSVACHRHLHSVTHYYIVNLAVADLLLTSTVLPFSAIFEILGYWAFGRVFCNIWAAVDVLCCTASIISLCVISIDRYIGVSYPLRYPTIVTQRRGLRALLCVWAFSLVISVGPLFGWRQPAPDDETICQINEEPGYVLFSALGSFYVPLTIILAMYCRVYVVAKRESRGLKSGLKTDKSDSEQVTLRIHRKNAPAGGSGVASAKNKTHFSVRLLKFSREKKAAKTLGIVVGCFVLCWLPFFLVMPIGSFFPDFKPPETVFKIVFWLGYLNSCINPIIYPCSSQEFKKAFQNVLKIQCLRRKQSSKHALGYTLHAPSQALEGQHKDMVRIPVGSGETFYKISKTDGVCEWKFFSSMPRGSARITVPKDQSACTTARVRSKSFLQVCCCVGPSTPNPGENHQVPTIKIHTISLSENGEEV

[2] = tested on: alpha 1A and alpha 1B adrenoceptors (rabbit aorta, α1A > α1B); test: Vasoconstriction assay in rabbit aorta induced by phenylephrine; format: cell-based; details: for pKB (apparent antagonist potency): Schild equation, 3-300 nM
Experimental: Vasoconstriction Assay in Rabbit Aorta Induced by Phenylephrine
Aorta rings withdrawn from young male rabbits (1500-1700 g) were tensionated to 2 g (20 mN) and kept in Krebs solution, containing 10 mM Hepes, for 30 minutes, under continuous aeration. During this period, eventual tension adjustments were performed until stabilization in 2 g, always with renewal of Krebs solution. Then, vasoconstrictions were induced by 60 mM KCl solution, in each ring, to verify the viability of the organ on the day of the experiment. The preparation was submitted to contraction with phenylephrine (5×10^−5 M) and, then the rings were washed to reach the basal line (0% of vasoconstriction). The procedure was repeated until obtainment of a constant curve. Then, a curve, using increasing concentrations of phenylephrine (5×10^−9-5×10^−4 M), was performed for each ring, as a positive control. The segments were washed to reach the basal line (0% of vasoconstriction) and incubated with the test compounds, individually, for 30 minutes. A second phenylephrine curve was performed and the obtained data compared to the first control curve. The results were analyzed by one-way ANOVA software from Microcal Origin 4.1. The aorta rings were used once for each compound.
Determination of the LASSBio 772 Antagonist Potency (pKB) on the Vasoconstriction of Rabbit or Rat Thoracic Aorta.
cr is the ratio between phenylephrine concentrations in the presence and absence of antagonist; and
B is the antagonist's concentration.

With COc1ccccc1N1CCN(CCc2ccc3c(c2)OCO3)CC1 [LASSBio 772, 1-(2-1,3-Benzodioxol-5-yl-ethyl)-4-(2-methoxy-phenyl)-piperazine] the “inhibition of the relaxation produced by salbutamol” value [1] was “not able to inhibit significantly the relaxing effect of salbutamol; also recorded: did not present any activity”, the IC50 (α1A) was 4.9 nM and the “antagonist activity on vasoconstriction” value ([2]; 30 microM compound, 5×10^−4 M phenylephrine) was “significant antagonist activity”. The Kb ([2]; rabbit aorta, phenylephrine) was roughly 14.1 nM, the “pKB (apparent antagonist potency)” value ([2]; rabbit aorta, phenylephrine) was 7.85 and the “pKB (apparent antagonist potency)” value ([2]; rabbit aorta, phenylephrine, listed as LASSBio-772) was “around 7.85”.
